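These data come from cells grown in 96-well plates and exposed to compound for 48 hours at five concentrations. The concentration for 50% growth inhibition is given as GI50. TGI: concentration producing complete growth inhibition.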
test system: HCC-2998 colon; test: NCI-60 cell line screen, 48 h

Row | Compound | TGI [µM] | GI50 [µM]
1 | COC(=O)C12C3C4C5(C(=O)OC)C(C1C35C(=O)N(C(C)C)C(C)C)C42C(=O)N(C(C)C)C(C)C (stereo not drawn) | > 50 | 
2 | N#CC(C#N)=c1[nH]c2cccc3c2-c2c(cccc2c3=C(C#N)C#N)[nH]1 | > 100 | 
3 | COC(=O)/C=C/C1C(C(=O)OC)C2(C(=O)OC)CCC1(C(=O)OC)N2 (stereo not drawn) | > 100 | 
4 | N#CC(/C(=N/NC(=O)C(=O)NN)C(=O)NC12CC3CC(CC(C3)C1)C2)c1ccccc1 (stereo not drawn) | > 100 | 
5 | CC(=O)OCC1OC([S-])C(OC(C)=O)C(OC(C)=O)C1OC(C)=O.CC[PH+](CC)CC.CC[PH+](CC)CC.[Au].[Au] (stereo not drawn) | 1.95 | 0.801
6 | Cc1cc(C)n(CCNCCn2nc(C)cc2C)n1 | > 100 | 
7 | COc1cc2c(cc1OCc1ccccc1)CNCC2 | > 100 | 
8 | CCOC(=O)N1CCN(C(=O)c2ccc(C(F)(F)F)nc2Nc2cc(Cl)ccc2C)CC1 | 30.1 | 11.6
9 | O=C(CN1CCCCC1)N1CCc2c([nH]c3ccccc23)C1c1cccnc1 (stereo not drawn) | > 100 | 
10 | O=C(O)c1cc(O)c2c(c1)C(C1c3cc(C(=O)O)cc(O)c3C(=O)c3c(OC4OC(CO)C(O)C(O)C4O)cccc31)c1cccc(OC3OC(CO)C(O)C(O)C3O)c1C2=O (stereo not drawn) | > 100 | > 100
11 | COc1ccc(CNc2c3ccccc3nc3ccccc23)cc1OC | 8.76 | 2.28
12 | CCCCCCCCCc1cc(=O)c2c(O)cccc2o1 | > 100 | 
13 | COc1cc2cn3c4ccc(O)cc4[nH]c(=O)c3c2cc1OC | 1.61 | 0.0307
14 | COc1ccc(/C=c2/sc3n(c2=O)C(c2ccc(OC)c(OC)c2)C2=C(N=3)c3cc(F)ccc3OC2)cc1 (stereo not drawn) | 21.2 | 
15 | Cc1n(Cc2ccc3ccccc3c2)cc[n+]1Cc1ccc2ccccc2c1 | 2.27 | 0.717
16 | O=S(O)CCCCSSCc1ccccc1CSSCCCCS(=O)O | > 100 | 
17 | CC(C)(C)N1CC2(CCCCC2)C1=O | > 100 | 
18 | O=C(CCC(=O)Nc1cccc(Cl)c1)CC(=O)c1ccc(Cl)cc1 | > 100 | 
19 | Cc1cc(NC(=O)c2ccc(C)c(Nc3nccc(-c4cccnc4)n3)c2)cc(-n2cnc(C)c2)c1 | > 35.6 | 17.1
20 | Cc1[nH]n(-c2cccc(Cl)c2)c(=O)c1/C=C1\C=Nc2ccc(Br)cc21 | > 100 | 14.3
21 | CC(=O)c1c(CBr)n([O-])c2ccccc2[n+]1=O | 34.5 | 17.6
22 | CCCS(=O)(=O)Nc1ccc(Nc2c3ccccc3nc3ccccc23)c(OC)c1 | 6.3 | 
23 | CCN(CC)CC(C)(C)C(=O)/C=C/c1ccc(Cl)c(Cl)c1 | 3.08 | 1.61
24 | NC1CCCC[C@H]1N.N[C@@H]1CCCC[C@@H]1N.O=C(P(=O)([O-])[O-])P(=O)([O-])[O-].[Pt+4].[Pt+4] | > 100 | > 100
25 | Cc1ccc(Nc2nc(N)c(C(=O)c3ccc(C#N)cc3)s2)cc1 | > 53.9 | 1.59
26 | CN1CCc2c(Sc3ccc(C(=O)NO)cc3)c3ccccc3n2C1 | 3.86 | 1.77
27 | CC(=O)O[C@@H]1C[C@]2(C(C)C)O[C@@]1(C)[C@@H]1CCC(C)=C1[C@@H]2OC(=O)/C=C/c1ccccc1 | > 100 | 68.1
28 | O=C(CSc1nnc(-c2ccccc2NC(=O)C(F)(F)F)c(=O)[nH]1)NC(=O)Nc1ccccc1 | > 100 | 
29 | CCN1C(=O)N(CC)C2C1NC(=S)N2/N=C/C=C/c1cccs1 (stereo not drawn) | > 100 | 0.709
30 | COc1ccc(C(=O)C(CO)Oc2ccccc2OC)cc1OC (stereo not drawn) | > 100 | 

test system: LOX IMVI melanoma; test: NCI-60 cell line screen, 48 h

Row | Compound | TGI [µM]
31 | CC1=C(C(=O)Nc2c(C)cccc2C)C(c2ccccc2Cl)C(C(=O)Nc2c(C)cccc2C)=C(C)N1 | > 100
32 | O=C1CSC(Cc2nc3ccccc3[nH]2)=N1 | 37.3
33 | COc1ccccc1NC(=O)C1=C(C)NC(C)=C(C(=O)Nc2ccccc2OC)C1c1ccc([N+](=O)[O-])cc1 | > 100
34 | CCOC(=O)[C@H](CCCNC(=O)OC(C)(C)C)NCc1ccc(OC)c(OC)c1 | > 100
35 | O=C(/C=C/c1c(O)ccc2ccccc12)c1ccc2ccccc2c1 | > 100
36 | O=[N+]([O-])c1ccc(-n2nnc(C3=NCCCN3)c2-c2ccc(Cl)cc2)cc1 | > 100
37 | COC(=O)C12C3C4C5(C(=O)OC)C(C1C35C(=O)N(C(C)C)C(C)C)C42C(=O)N(C(C)C)C(C)C (stereo not drawn) | > 43.6
38 | N#CC(C#N)=c1[nH]c2cccc3c2-c2c(cccc2c3=C(C#N)C#N)[nH]1 | > 100

Reference: PubChem BioAssay (NCI)
